From patent US20220152060A1, “PHYTOECDYSONES AND THE DERIVATIVES THEREOF FOR USE IN THE TREATMENT OF IMPAIRED LUNG FUNCTION” (BIOPHYTIS, priority 2019, published 2022)

Experiments:
mdx mice [1] = experiment: whole-body plethysmography of respiratory function in response to metacholine; type: in vivo
Procedure: Male mice C57BL/10ScSnJ (healthy mice denoted as “C57Black10” in the figures) and C57BL/10ScSn-Dmdmdx/J (murine model of Duchenne muscular dystrophy, denoted “mdx” in the figures) aged 12 weeks, have been used. The mice have been divided into three groups of 12 mice each: an untreated group of healthy control mice C57Black10, a group of untreated mdx mice (mdx) and a group of mice chronically treated with a dose of 50 mg/kg/day, orally in the drinking water. The respiratory function of all the mice has been evaluated by whole-body plethysmography before the start of the study, (D0) then at 30 days (D30) and 60 days (D60) after the start of the treatment. After two months of treatment, the respiratory function has been invasively evaluated, just before sacrifice of the animal, by piston ventilated controlled by a central control unit (commonly called “computer”), said ventilator using the forced oscillation technique, such as the device known by the name FlexiVent™, in order to determine more directly the mechanical parameters of the respiratory system. In order to precisely monitor the change in respiratory function over the course of the treatment, whole-body plethysmography analyses (Emka Technologies, Paris, France) have been performed on the healthy control mice C57Black10, on the untreated mdx mice and on the mdx mice having been treated with BIO101. The advantages of this technique reside in the fact that it allows monitoring to be performed on an awake animal, freely moving in a hermetic enclosure, and that this is performed in a non-invasive manner. Consequently, the stress due to handling of the animals is reduced as it is possible to repeat the measurements over prolonged periods. Barometric plethysmography is therefore frequently used for measuring bronchial reactivity in small animals (Chong et al., 1998; Djuric et al., 1998; Hoffman et al., 1999). The pressure variations measured with respect to a reference chamber make it possible to define various respiratory parameters such as the peaks and times of inspiratory and expiratory pressure as well as a dimensionless quantity called Penh (enhanced Pause) which allows the bronchoconstriction to be evaluated. More specifically, the Penh, calculated from the pressure signal (Pb) in the chamber, is an important index to obtain, because the variations in Penh change in parallel with those of the respiratory resistance and it therefore represents a predictive parameter for changes in the resistive properties of the respiratory system (Hamelmann et al., 1997; Bergren, 2001; Onclinx et al., 2003). The following values have been calculated from the filtered Pb: the maximum variation in Pb during expiration (PEP: Peak Expiratory Pressure), the maximum change in Pb during inspiration (PIP: Peak Inspiratory Pressure) and the time interval (TR). The Penh value has then been calculated as follows: […] [Math. 1] where Pause=(TE−TR)/TE [Math. 2] • TE being the expiration time (Adler et al., 2004). Moreover, the peak inspiratory flow (PIF) and the peak expiratory flow (PEF), the relaxation time (RT) and the respiratory rate (BF) have also been measured and shown. The Penh value has been measured before the start of the treatment (D0), 30 days after the start of the treatment (D30) and 60 days after the treatment (D60). First, the entire cohort of mdx mice (n=24) were compared with healthy mice C57Black10 (n=12), before receiving the treatment. Awake mice were exposed to increasing doses of metacholine aerosols generated by a nebulizer containing 0 to 40 mg/mL of metacholine in PBS.

mdx mice [2] = experiment: piston ventilator (FlexiVent) forced oscillation measurement of pulmonary resistance, compliance and elastance; type: in vivo; settings: 50 mg/kg/day oral
Procedure: Male mice C57BL/10ScSnJ (healthy mice denoted as “C57Black10” in the figures) and C57BL/10ScSn-Dmdmdx/J (murine model of Duchenne muscular dystrophy, denoted “mdx” in the figures) aged 12 weeks, have been used. The mice have been divided into three groups of 12 mice each: an untreated group of healthy control mice C57Black10, a group of untreated mdx mice (mdx) and a group of mice chronically treated with a dose of 50 mg/kg/day, orally in the drinking water. The respiratory function of all the mice has been evaluated by whole-body plethysmography before the start of the study, (D0) then at 30 days (D30) and 60 days (D60) after the start of the treatment. After two months of treatment, the respiratory function has been invasively evaluated, just before sacrifice of the animal, by piston ventilated controlled by a central control unit (commonly called “computer”), said ventilator using the forced oscillation technique, such as the device known by the name FlexiVent™, in order to determine more directly the mechanical parameters of the respiratory system. In order to determine more directly the mechanical parameters of the respiratory system and the impact of a chronic treatment over a period of two months by BIO101 (D60) on these parameters, the dynamic pulmonary resistance was measured using a piston ventilator system as previously described, in response to increasing doses of metacholine. The mice were anaesthetized and connected by an endotracheal cannula to the piston ventilator system. After the start of mechanical ventilation, each mouse received an intraperitoneal injection of 0.1 mL of a 10 mg/mL rocuronium bromide solution. The animal was ventilated at a respiratory rate of 150 respirations/minute and with a tidal volume of 10 mL/kg against a final positive expiratory pressure of 3 cm H2O. The respiratory mechanisms were evaluated using a forced oscillation maneuver with a duration of 1.2 seconds (2.5 Hz) and a 3-second wideband forced oscillation man oeuvre containing 13 primordial frequencies between 1 and 20.5 Hz. The resistance of the respiratory system (R) was calculated using a microcomputer type central processing unit connected to the piston ventilator system and comprising, in particular, software for performing said calculation. The two maneuvers were carried out alternately every 15 seconds after each nebulization with a metacholine aerosol, in order to measure the change in the response time of the bronchoconstriction induced by metacholine. The pulmonary resistance, compliance and elastance could thus be determined.

CC(C)(O)CC[C@@H](O)[C@](C)(O)[C@H]1CC[C@@]2(O)C3=CC(=O)[C@@H]4C[C@@H](O)[C@@H](O)C[C@]4(C)[C@H]3CC[C@]12C [BIO101, 20-hydroxyecdysone]
relaxation time (mdx mice [1]; 50 mg/kg/day oral, 30 days, compared with untreated mdx mice, p<0.05 (FIG. 3D)): clear improvement in relaxation time
peak inspiratory flow (cited to FIG. 3B) (mdx mice [1]; 50 mg/kg/day oral, 30 days, in comparison to D0): remain unchanged
respiratory rate (mdx mice [1]; 50 mg/kg/day oral, 30 days, in comparison to D0 (FIG. 3E)): remain unchanged
peak inspiratory flow (cited to FIG. 3C) (mdx mice [1]; 50 mg/kg/day oral, 30 days, in particular equilibrium state or low metacholine dose, p<0.05): increase in peak inspiratory flow
peak expiratory flow (mdx mice [1]; 50 mg/kg/day oral, 60 days): remain unchanged
relaxation time (mdx mice [1]; 50 mg/kg/day oral, 60 days (FIG. 4D)): trend towards improved relaxation time
respiratory rate (mdx mice [1]; 50 mg/kg/day oral, 60 days (FIG. 4E)): remain unchanged
peak inspiratory flow (mdx mice [1]; 50 mg/kg/day oral, 60 days, p<0.05 (FIG. 4B)): significant improvement
mean Penh value (mdx mice [1]; 50 mg/kg/day oral, D60, metacholine dose of 40 mg/mL, untreated mdx 4, healthy 1.04 (FIG. 6B)): 1.87
Penh in response to metacholine (mdx mice [1]; 50 mg/kg/day oral, after 60 days of treatment, compared to untreated mdx mice, p<0.0001 (FIG. 4A)): significant reduction in the Penh
Penh in response to metacholine (mdx mice [1]; 50 mg/kg/day orally in drinking water, after 30 days of treatment, compared to mdx mice at D0, p<0.001 (FIG. 3A)): significant reduction in Penh
resistance of the airways (pulmonary resistance) (mdx mice [2]; 60 days, metacholine 0 to 20 mg/mL, vs untreated mdx mice, p<0.0001): significantly lower resistance of the airways
pulmonary compliance (mdx mice [2]; D60, metacholine 20 mg/mL, untreated mdx 0.017, healthy 0.031 (FIG. 8B)): 0.029 mL/cmH2O
pulmonary elastance (mdx mice [2]; D60, metacholine 20 mg/mL, untreated mdx 34.8, healthy 62.8 as printed (FIG. 8C)): 69.1 cmH2O/mL
pulmonary compliance, change at increasing metacholine doses (mdx mice [2]; two months, p<0.0001 (FIG. 7B)): significantly improved
pulmonary elastance, change at increasing metacholine doses (mdx mice [2]; two months, p<0.0001 (FIG. 7C)): significantly improved
